Laboratory results as given in patent US9808470B2, “Estrogenic components for use in the treatment of neurological disorders” (UNIVERSITE DE LIEGE, priority 2012, dated 2017).

Tests used:
[1] = tested on: doublecortin (DCX); experiment: Ex.8 neuroprotective HIE rat model: doublecortin staining; assay type: in vivo; conditions: 5 mg/kg/day E4, DG
Procedure: Newborn rat pups were assigned to one of the following 14 groups from postnatal day 4 (FIG. 23(A)): Sham group (n=12), Vehicle group (n=17), 5 mg/kg/day E4 (n=13), 10 mg/kg/day E4 (n=10), 5 mg/kg/day E4+1.6 mg/kg/day PROG (n=11), 10 mg/kg/day E4+1.6 mg/kg/day PROG (n=11), 5 mg/kg/day E4+16 mg/kg/day PROG (n=11), 10 mg/kg/day E4+16 mg/kg/day PROG (n=11), 5 mg/kg/day E4+136 ng//kg/day E2 (n=11), 10 mg/kg/day E4+136 ng/kg/day E2 (n=11), 5 mg/kg/day E4+1.6 mg/kg/day PROG+136 ng/kg/day (n=13) E2, 10 mg/kg/day E4+1.6 mg/kg/day PROG+136 ng/kg/day E2 (n=16), 5 mg/kg/day E4+16 mg/kg/day PROG+136 ng/kg/day E2 (n=11), 10 mg/kg/day E4+16 mg/kg/day PROG+136 ng/kg/day groups (n=13). Intraperitoneal injections of the pups from study groups were performed from postnatal day 4 to postnatal day 7 inclusively. […]
The sections were heated in 10 mmol/L citrate buffer (pH 6.0) at 100° C. for 10 minutes. […] Samples were analyzed with the aid of a microscope (Olympus Vanox AHBT3, Olympus), and the ImageJ software 15 (NIH). The percentage of positively stained cells was quantified as a sum of positively stained either DCX or VEGF cells divided by the total number of DAPI positive cells expressed in percentage.

[2] = tested on: vascular endothelial growth factor (VEGF); experiment: Ex.4 therapeutic HIE rat model: VEGF staining; assay type: in vivo
Procedure: The sections were heated in 10 mmol/L citrate buffer (pH 6.0) at 100° C. for 10 minutes. Endogenous peroxidase activity was blocked with 3% hydrogen peroxide for 10 minutes and after a second blocking with 5% normal goat serum, the sections were incubated with anti-doublecortin (DCX) antibody, diluted 1:1000 (rabbit polyclonal antibody; Abcam, Cambridge, UK) and anti-vascular endothelial growth factor (VEGF) antibody, diluted 1:100 (mouse monoclonal antibody; Abcam, Cambridge, UK) overnight at 4° C. After rinsing, Alexa Fluor® goat anti-rabbit, diluted 1:1000 and Alexa Fluor® goat anti-mouse, diluted 1:1000 (Invitrogen Inc., Ghent, Belgium) were added and sections were incubated 1 h at room temperature. Mounting medium containing 4′,6-diamidino-2-phenylindole (DAPI) for fluorescent studies was used (Vector Laboratories). Samples were analyzed with the aid of a microscope (Olympus Vanox AHBT3, Olympus), and the ImageJ software (NIH). The percentage of positively stained cells was quantified as a sum of positively stained either DCX or VEGF cells divided by the total number of DAPI positive cells expressed in percentage.
To study the therapeutic effect of estetrol, newborn rat pups were assigned to one of the following 6 groups at postnatal day 7: sham group (n=29), vehicle group (n=20), 1 mg/kg E4 group (n=16), 5 mg/kg E4 group (n=19), 10 mg/kg day E4 (n=17) and 50 mg/kg day E4 group (n=15). At postnatal day 7 animals were anesthetized with isoflurane (induction, 3.0%; maintenance, 1.5%), and the rat pups from vehicle and E4 groups passed through surgery encompassing left common carotid artery double ligation and cut. After surgery, the pups were returned to their dams and allowed to recover for 1 hour. The pups were then placed in a humidified hypoxic in vivo cabinet (CoyLab). Hypoxia was produced by the inhalation of 11%-8% of oxygen balanced by nitrogen at decreased concentration of oxygen for 20 minutes, followed by inhalation of 8% oxygen and 92% nitrogen at constant concentration for 35 minutes. All the manipulations were performed at 37° C.
Upon retrieval from the hypoxia chamber the rat pups were injected intraperitoneally either by vehicle (vehicle group) or by E4 (1 mg/kg, 5 mg/kg, 10 mg/kg or 50 mg/kg) in accordance to the group assignment. The animals from the sham group went through similar procedures but proceeded neither left common carotid artery ligation and cut followed by hypoxia nor vehicle or estetrol administration. Rat pups recovered with their dams until being sacrificed at postnatal day 14.

C[C@]12CC[C@@H]3c4ccc(O)cc4CC[C@H]3[C@@H]1[C@@H](O)[C@@H](O)[C@@H]2O [E4, 1,3,5(10)-estratrien-3,15α,16α,17β-tetrol]
percentage of DCX positively stained cells [1]: 60.29±5.66%
percentage of VEGF positively stained cells ([2]; 5 mg/kg E4 single ip dose after HI, CA1): 37.4±4.833%
percentage of VEGF positively stained cells ([2]; 10 mg/kg E4 single ip dose after HI, CA1): 37.1±3.84%
percentage of VEGF positively stained cells ([2]; 10 mg/kg E4 single ip dose after HI, cortex): 49.4±4.949%
percentage of VEGF positively stained cells ([2]; 50 mg/kg E4 single ip dose after HI, CA1): 45.1±4.753%
percentage of VEGF positively stained cells ([2]; E4 1, 5, 10, 50 mg/kg single ip dose after HI, CA2/CA3, between study groups): not significantly different between the study groups
VEGF staining ([2]; E4 1, 5, 10, 50 mg/kg single ip dose after HI, DG, among study groups): neither DCX nor VEGF staining was significantly different
